From ChEMBL document CHEMBL1133545, “Inhibition of monoamine oxidases by functionalized coumarin derivatives: biological activities, QSARs, and 3D-QSARs” (J Med Chem, 2000)
pIC50: −log10 of the molar value.

Assays:
[1] = target: T1, Amine oxidase [flavin-containing] A (Rattus norvegicus, UniProt P21396)
T1 sequence (P21396 whole entry): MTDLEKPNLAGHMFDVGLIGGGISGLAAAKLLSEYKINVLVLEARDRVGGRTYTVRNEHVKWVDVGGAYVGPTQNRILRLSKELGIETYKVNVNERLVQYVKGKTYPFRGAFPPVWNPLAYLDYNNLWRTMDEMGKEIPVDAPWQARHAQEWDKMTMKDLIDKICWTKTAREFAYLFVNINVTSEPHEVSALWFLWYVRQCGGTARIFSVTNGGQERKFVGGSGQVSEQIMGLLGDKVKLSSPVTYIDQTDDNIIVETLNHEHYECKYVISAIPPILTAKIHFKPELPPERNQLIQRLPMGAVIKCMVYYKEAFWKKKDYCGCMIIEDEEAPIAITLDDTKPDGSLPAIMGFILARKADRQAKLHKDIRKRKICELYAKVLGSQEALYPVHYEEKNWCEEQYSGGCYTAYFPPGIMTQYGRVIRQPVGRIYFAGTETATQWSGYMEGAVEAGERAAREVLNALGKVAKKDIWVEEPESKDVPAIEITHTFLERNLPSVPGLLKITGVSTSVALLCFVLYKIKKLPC

[2] = target: T2, Amine oxidase [flavin-containing] B (Rattus norvegicus, UniProt P19643)
T2 sequence (P19643 whole entry): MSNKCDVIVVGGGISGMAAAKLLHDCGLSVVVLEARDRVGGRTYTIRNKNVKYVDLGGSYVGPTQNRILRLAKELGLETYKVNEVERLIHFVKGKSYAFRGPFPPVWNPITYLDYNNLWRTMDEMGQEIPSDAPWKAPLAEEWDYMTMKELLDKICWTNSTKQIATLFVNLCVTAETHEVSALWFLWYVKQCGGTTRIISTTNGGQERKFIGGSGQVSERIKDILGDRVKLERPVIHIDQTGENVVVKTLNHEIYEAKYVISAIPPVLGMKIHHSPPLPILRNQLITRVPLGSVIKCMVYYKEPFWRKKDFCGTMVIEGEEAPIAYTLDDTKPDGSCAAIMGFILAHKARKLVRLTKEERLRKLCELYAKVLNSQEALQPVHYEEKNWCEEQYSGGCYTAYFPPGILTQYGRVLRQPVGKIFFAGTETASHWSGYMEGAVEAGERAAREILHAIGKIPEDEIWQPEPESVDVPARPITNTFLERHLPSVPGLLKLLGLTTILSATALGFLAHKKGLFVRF

[3] = target: T1, Amine oxidase [flavin-containing] A; remark: listed apart in the source
Description: Compound was tested for its inhibitory effect on Monoamine oxidase A at 15 uM

[4] = target: T2, Amine oxidase [flavin-containing] B; remark: listed apart in the source
[5] = target: T1, Amine oxidase [flavin-containing] A; remark: listed apart in the source
Description: Compound was tested for its inhibitory effect on Monoamine oxidase A at 1 uM

[6] = target: T1, Amine oxidase [flavin-containing] A; remark: listed apart in the source
Description: Compound was tested for its inhibitory effect on MAO-A ( Monoamine Oxidase) at 50 uM

[7] = target: T2, Amine oxidase [flavin-containing] B; remark: listed apart in the source
Description: Compound was tested for its inhibitory effect on MAO-B ( Monoamine Oxidase) at 4 uM

[8] = target: T1, Amine oxidase [flavin-containing] A; remark: listed apart in the source
Description: Compound was tested for its inhibitory effect on Monoamine oxidase A at 30 uM

[9] = target: T1, Amine oxidase [flavin-containing] A; remark: listed apart in the source
Description: Compound was tested for its inhibitory effect on Monoamine oxidase A at 20 uM)

[10] = target: T2, Amine oxidase [flavin-containing] B; remark: listed apart in the source
Description: (§1) Compound was tested for its inhibitory effect on Monoamine oxidase B at 3 uM

[11] = target: T1, Amine oxidase [flavin-containing] A; remark: listed apart in the source
Description: Compound was tested for its inhibitory effect on Monoamine oxidase A at 3 uM

[12] = target: T1, Amine oxidase [flavin-containing] A; remark: listed apart in the source
Description: Compound was tested for its inhibitory effect on Monoamine oxidase A at 50 uM

[13] = target: T1, Amine oxidase [flavin-containing] A; remark: listed apart in the source
Description: Compound was tested for its inhibitory effect on Monoamine oxidase A at 2 uM

[14] = target: T2, Amine oxidase [flavin-containing] B; remark: listed apart in the source
Description: as §1

[15] = target: T1, Amine oxidase [flavin-containing] A; remark: listed apart in the source
Description: Compound was tested for its inhibitory effect on Monoamine oxidase A at 8 uM

[16] = target: T1, Amine oxidase [flavin-containing] A; remark: listed apart in the source
Description: (§2) Compound was tested for its inhibitory effect on MAO-A ( Monoamine Oxidase) at 100 uM

[17] = target: T2, Amine oxidase [flavin-containing] B; remark: listed apart in the source
Description: (§3) Compound was tested for its inhibitory effect on MAO-B ( Monoamine Oxidase) at 100 uM

[18] = target: T1, Amine oxidase [flavin-containing] A; remark: listed apart in the source
Description: Compound was tested for its inhibitory effect on Monoamine oxidase A at 5 uM

[19] = target: T2, Amine oxidase [flavin-containing] B; remark: listed apart in the source
Description: Compound was tested for its inhibitory effect on Monoamine oxidase B at 40 uM

[20] = target: T2, Amine oxidase [flavin-containing] B; remark: listed apart in the source
Description: as §3

[21] = target: T1, Amine oxidase [flavin-containing] A; remark: listed apart in the source
Description: as §2

Row | SMILES | pIC50 [1] | pIC50 [2] | further results
1 | Cc1c(C)c2ccc(OCCc3ccccc3)cc2oc1=O | 6.00 |  | 
2 | Cc1cc(=O)c2cc(OCc3ccccc3)ccc2o1 | 4.66 | 6.90 | 
3 | O=c1cc(O)c2ccc(OCc3ccccc3)cc2o1 |  | 5.80 | inhibition at 15 µM [3]: 26%
4 | O=c1cc(-c2ccccc2)oc2cc(OCc3ccccc3)ccc12 |  |  | inhibition at 1 µM [4]: 6%; inhibition at 1 µM [5]: 6%
5 | Cc1c(C)c2ccc(OCc3ccc(F)c(O)c3)cc2oc1=O | 6.94 | 8.13 | 
6 | COc1cc2ccc(=O)oc2cc1OCc1ccccc1 |  | 5.17 | inhibition at 50 µM [6]: 18%
7 | O=C1CCc2ccc(OCc3ccccc3)cc2O1 |  |  | inhibition at 4 µM [7]: 20%
8 | c1ccc(COc2ccc3c(c2)OCO3)cc1 |  | 5.62 | inhibition at 30 µM [8]: 18%
9 | O=C1OCc2ccc(OCc3ccccc3)cc21 | 5.44 | 6.63 | 
10 | O=c1ccoc2cc(OCc3ccccc3)ccc12 | 4.79 | 5.98 | 
11 | O=c1oc2cc(OCc3ccccc3)ccc2s1 |  | 4.23 | inhibition at 20 µM [9]: 0%
12 | O=C1CCc2ccc(OCc3ccccc3)cc2N1 | 3.99 | 5.98 | 
13 | Cc1c(-c2ccccc2)c(=O)oc2cc(OCc3ccccc3)ccc12 |  |  | inhibition at 3 µM [10]: 8%; inhibition at 3 µM [11]: 4%
14 | c1ccc(COc2ccc3ccoc3c2)cc1 |  | 5.74 | inhibition at 50 µM [12]: 30%
15 | CC1C(=O)Nc2cc(OCc3ccccc3)ccc2C1C (centres undefined) |  | 6.20 | inhibition at 2 µM [13]: 0%
16 | O=c1cc(C(F)(F)F)c2ccc(OCc3ccccc3)cc2o1 |  | 5.86 | 
17 | O=c1cc(-c2ccccc2)oc2ccc(OCc3ccccc3)cc12 |  |  | inhibition at 3 µM [14]: 38%
18 | c1ccc(COc2ccc3ccccc3c2)cc1 |  | 5.59 | inhibition at 8 µM [15]: 0%
19 | O=c1ccc2cc(O[C@H]3O[C@H](CO)[C@@H](O)[C@@H](O)[C@@H]3O)c(OCc3ccccc3)cc2o1 |  |  | inhibition at 100 µM [16]: 15%; inhibition at 100 µM [17]: 11%
20 | Cc1c(C)c2ccc(OCc3cccc(N)c3)cc2oc1=O | 6.00 | 7.46 | 
21 | O=c1ccoc2ccc(OCc3ccccc3)cc12 | 5.17 | 6.25 | 
22 | O=C1NC(=O)c2cc(OCc3ccccc3)ccc21 |  |  | inhibition at 5 µM [18]: 25%
23 | Cc1ccc(S(=O)(=O)Nc2ccc3c(C)c(C)c(=O)oc3c2)cc1 | 4.17 |  | inhibition at 40 µM [19]: 29%
24 | c1ccc(COc2ccc3c(c2)OCC3)cc1 | 4.40 | 6.30 | 
25 | Cc1c(C)c2ccc(OC(C)c3ccccc3)cc2oc1=O (centres undefined) | 5.45 | 6.49 | 
26 | Cc1c(C)c2ccc(/C=C/c3ccccc3)cc2oc1=O | 6.39 | 7.55 | 
27 | O=c1ccc2cc(OCc3ccccc3)c(O)cc2o1 | 4.63 | 5.69 | 
28 | CC(=O)Nc1cccc(COc2ccc3c(C)c(C)c(=O)oc3c2)c1 | 5.15 |  | 
29 | O=c1ccc2ccccc2o1 [COUMARIN] | 4.39 | 4.92 | 
30 | O=c1ccc2cc(O[C@@H]3O[C@H](CO)[C@@H](O)[C@H](O)[C@H]3O)c(O)cc2o1 [ESCULIN] |  |  | inhibition at 100 µM [20]: 7%; inhibition at 100 µM [21]: 9%
